Test results reported in PMC2225439, “Amyloid as a Depot for the Formulation of Long-Acting Drugs” (PLoS Biology, 2008).

Columns and labels:
Congo red (CR) binding = format: physicochemical; set-up: key to Congo Red: b, binding; n, not binding; settings: analogs incubated for 30 d, 1 mg/ml in 5% D-mannitol, 0.01% sodium azide, room temperature; UV 300–700 nm and by eye; three independent experiments
Method: To confirm amyloid formation by GnRH analogs, CR binding was measured. CR, like Thio T, is a dye routinely used to detect β-sheet–rich assemblies. CR binding can be measured by the “red shift” change of its absorption maximum from 490 to 540 nm, by an increase of the dye's molar absorptivity, and in favorable cases by eye. All three types of measurements were performed with GnRH analogs incubated for 30 d. […] However, five short-acting GnRH analogs, i.e., S3, S4, S6, S10, and S11, bind CR, showing that some short-acting GnRH-analogs are able to form amyloids after prolonged incubation (see also below). In contrast to short-acting analogs, all long-acting analogs bind CR.
(§1) GnRH analogs were dissolved in a glass tube in 1 ml of 5% D-mannitol and 0.01% sodium azide at a concentration of 1 mg/ml. The GnRH analogs were then incubated at room temperature without stirring. The fibril formation was monitored by EM, CR, and time-resolved by Thio T binding studies. Three independent experiments were performed for each sample.
A 5-μl aliquot of peptide sample was mixed with 80 μl of PBS buffer containing 10% ethanol. Then 15 μl of a 100 μM CR solution (filtered through 0.2-μm filter) in PBS containing 10% ethanol was added. After mixing, UV was measured from 300–700 nm. For the measurement of the CR-only spectrum, 15 μl of CR solution with 85 μl of PBS containing 10% ethanol was prepared. As a control, a 5-μl aliquot of GnRH analog mixed with 95 μl of PBS containing 10% ethanol was measured. Three independent experiments were performed for each sample. In addition to the UV measurements, pictures of the cuvette containing the peptide sample and CR were taken to visually show the CR binding to the amyloids.

[1] = Electron microscopy of negative-stained samples; format: physicochemical; set-up: key to EM^8 / EM^30: fib, fibrils; nfib, no fibrils; settings: 1 mg/ml in 5% D-mannitol, room temperature, at least two independent experiments
Method: To formally determine the formation of amyloid fibrils by GnRH analogs and to characterize other possible assemblies present in the sample, EM was done on all of the GnRH analogs. Since the EM analysis is for a qualitative interpretation only, amyloid fibrils and other small aggregates might be observed under the electron microscope even if only a minority of the sample forms fibrils. Samples were studied after 8 and 30 d of incubation. […] The fibrils show a wide variety of morphologies, comprising helical ultrastructures with varying degrees of lateral association. Furthermore, the fibrils are composed of one or more filaments, resulting in overall diameters ranging from approximately 6 to 12 nm. No oligomers are observed for the long-acting compounds at day 8 or at day 30 (Figures 2 and S2).
as §1
A 5-μl aliquot of peptide sample was diluted into 50 μl of water to a peptide concentration of approximately 50 μM, spotted on a glow-discharged, carbon-coated Formvar grid (Electron Microscopy Sciences), incubated for 5 min, washed with distilled water, and then stained with 1% (w/v) aqueous uranyl formate solution. Uranyl formate solutions were filtered through 0.2-μm sterile syringe filters (Corning) before use. EM analysis was performed using a JEOL JEM-100CXII electron microscope at 80 kV with nominal magnifications between 36,000 and 72,000. Images were recorded digitally by using the SIS Megaview III imaging system. At least two independent experiments were carried out for each sample.

wild-type GnRH = target: T1, wild-type GnRH (Homo sapiens, UniProt P01148); experiment: Seeding of wild-type GnRH by L20 fibrils; settings: matured fibrils 5% v/v with GnRH solution 95% v/v, 5% D-mannitol, room temperature without stirring, 1 mo; Thio T and EM
T1 construct: gonadotropin-releasing hormone (GnRH); made in house; host or cells: chemical solid-phase synthesis (no expression host)
From the text: Another concern for the application of amyloids in the formulation of long-acting drugs is the potential multiplication and spread of amyloids through seeding. Only a small amount of fibrillar seed is needed to induce and accelerate self-polymerization in the presence of monomeric amyloid protein/peptide. Within the context of GnRH, perhaps amyloids of the injected GnRH analogs may act as the seeds and the host GnRH as the reservoir of the free monomer. To mimic this situation in vitro, a seeding reaction was set up with a small amount of matured, long-acting L20 fibrils (5% v/v) in presence of a solution of wild-type GnRH (95% v/v). […]
A total of 5 μl of matured L20 fibril solution at a concentration of 1 mg/ml in 5% D-mannitol, 0.01% sodium azide was mixed with 95 μl of freshly prepared GnRH solution in the same solution condition followed by incubation at room temperature without stirring. […] Once a week, a 10-μl aliquot was diluted into 500 μl water containing 5% D-mannitol, 0.01% sodium azide, and 10 μl of 1 mM Thio T to measure the Thio T fluorescence as described above. […] The protein concentration of the supernatant was measured by UV absorbance with ɛ280 of 6,500 M^−1cm^−1. […] The formation of amyloid was monitored regularly for the mixture (α-Syn+L20) and α-Syn by Thio T binding.

- Congo Red (Congo red (CR) binding): b
- EM^8 ([1]; electron microscopy at day 8 of incubation): fib
- EM^30 ([1]; electron microscopy at day 30 of incubation): fib
- seeding of wild-type GnRH (wild-type GnRH): unable to seed wild-type GnRH
Substance: Ac-DNal-DCpa-Agl(Nic)-Ser-Aph(Ac)-DAph(Ac)-Leu-ILys-Pro-DAla-NH2 [L20]
